From the SangsterLogP compilation come the findings set out here.

As a reminder, the logP is a log measure of how a compound divides between an organic and an aqueous phase. A higher logP goes with higher lipophilicity. By logD is commonly meant the decadic logarithm of the distribution of all forms, ionised or not, between an organic phase and buffer at a given pH.

Conditions in one series: not given
`[O-][n+]1nc(-n2ccnc2)nc2ccc(Cl)cc21` came in with a logP of 2.04.

Take `C#CCOC(=O)[C@@H](C)Oc1ccc(Oc2ncc(Cl)cc2F)cc1`: the logP came to 3.9.

`CC1(C)[C@H](C(=O)O[C@H](C#N)c2cccc(Oc3ccccc3)c2)[C@@H]1/C=C\C(=O)OC(C(F)(F)F)C(F)(F)F`: the logP turned out to be 5.26.

Turning to `CCOP(=S)(OCC)OC(Cl)C(Cl)(Cl)Cl` (stereo unspecified), the logP was determined as 4.59.

`CCCN(CCC)c1c([N+](=O)[O-])cc(C(F)(F)F)c(N)c1[N+](=O)[O-]` displayed a logP of 4.1.

Regarding `CCOC(=O)Cn1c(=O)sc2cccc(Cl)c21`, the logP amounted to 2.5.

In turn, `Cc1ccc2nc3sc(=O)sc3nc2c1` registered a logP of 3.78.

As for `CCCCCC(C)OC(=O)COc1ccc(Cl)c2cccnc12` (stereo unspecified), the logP turned out to be 5.03.

On to `CC1=C(C)S(=O)(=O)CCS1(=O)=O`, for which the logP was -0.17.

For the molecule `CC(Oc1ccc(Oc2cnc3cc(Cl)ccc3n2)cc1)C(=O)OCC1CCCO1` (stereo unspecified), the logP was 4.32.

Still in this series, the particulars now being: pH 2.0.
In turn, `COc1cc(OC)nc(NC(=O)NS(=O)(=O)N(C)S(C)(=O)=O)n1` showed a logD of 1.63.
